# From ChEMBL document CHEMBL1201862, “PubChem BioAssay data set” (2004)
# Active and inactive are the calls of the source.
# How the values were obtained:
# [1] = target: Casein kinase I isoform alpha (Homo sapiens, UniProt P48729); type: functional
# [2] = target: Tyrosine-protein kinase BTK (Homo sapiens, UniProt Q06187); type: functional
# Focal adhesion kinase 1 = Focal adhesion kinase 1 (Homo sapiens, UniProt Q05397); type: functional;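 note: measured as one member of a kinome panel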
# [3] = target: Inhibitor of nuclear factor kappa-B kinase subunit epsilon (Homo sapiens, UniProt Q14164); assay: Navigating the Kinome. Panel member name: IKBKE; type: functional
# [4] = target: Cyclin-dependent kinase 7 (Homo sapiens, UniProt P50613); type: functional;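 note: value comes from a kinome-wide kinase profiling panel in which CDK7 is one member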
# Activin receptor type-1 = Activin receptor type-1 (Homo sapiens, UniProt Q04771); assay: Navigating the Kinome. Panel member name: ACVR1; type: functional
# [5] = target: Rho-associated protein kinase 1 (Homo sapiens, UniProt Q13464); type: functional;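 note: measured within a broad kinome-wide panel profiling many kinases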
# [6] = target: Serine/threonine-protein kinase TBK1 (Homo sapiens, UniProt Q9UHD2); assay: Navigating the Kinome. Panel member name: TBK1; type: functional
# Aurora kinase B = Aurora kinase B (Homo sapiens, UniProt Q96GD4); type: functional
# [7] = target: Cyclin-dependent kinase 8 (Homo sapiens, UniProt P49336); assay: Navigating the Kinome. Panel member name: CDK8; type: functional
# Chain of Cyclin-dependent kinase 8 (P49336 whole entry): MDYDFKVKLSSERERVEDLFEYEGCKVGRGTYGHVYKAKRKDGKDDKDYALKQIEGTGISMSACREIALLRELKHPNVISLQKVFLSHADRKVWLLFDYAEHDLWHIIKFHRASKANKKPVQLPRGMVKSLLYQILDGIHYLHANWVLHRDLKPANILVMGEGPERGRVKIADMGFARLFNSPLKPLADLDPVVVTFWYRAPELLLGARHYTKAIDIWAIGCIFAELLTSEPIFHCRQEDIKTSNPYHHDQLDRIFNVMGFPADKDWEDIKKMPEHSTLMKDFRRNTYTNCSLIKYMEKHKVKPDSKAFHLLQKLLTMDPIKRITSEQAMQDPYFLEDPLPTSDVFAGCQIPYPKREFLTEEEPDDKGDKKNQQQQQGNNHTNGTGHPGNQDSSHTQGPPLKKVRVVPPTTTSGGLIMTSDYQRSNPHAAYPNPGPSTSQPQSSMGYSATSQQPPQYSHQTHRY
# [8] = target: Serine/threonine-protein kinase PAK 4 (Homo sapiens, UniProt O96013); type: functional;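 note: value obtained within a kinome profiling panel in which PAK4 was one of the panel members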
# [9] = target: Vascular endothelial growth factor receptor 1 (Homo sapiens, UniProt P17948); type: functional;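 note: measured within a kinome-wide profiling panel, FLT1 as the panel member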
# [10] = target: Mitogen-activated protein kinase 8 (Homo sapiens, UniProt P45983); type: functional;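 note: value comes from one member of a kinome-wide kinase profiling panel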
# [11] = target: Dual specificity mitogen-activated protein kinase kinase 2 (Homo sapiens, UniProt P36507); assay: Navigating the Kinome. Panel member name: MAP2K2; type: functional
# [12] = target: Fibroblast growth factor receptor 1 (Homo sapiens, UniProt P11362); type: functional
# [13] = target: 5'-AMP-activated protein kinase catalytic subunit alpha-1 (Homo sapiens, UniProt Q13131); type: functional
# [14] = target: Macrophage colony-stimulating factor 1 receptor (Homo sapiens, UniProt P07333); type: functional;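 note: value comes from the Navigating the Kinome screening panel, CSF1R member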
# [15] = target: Macrophage-stimulating protein receptor (Homo sapiens, UniProt Q04912); assay: Navigating the Kinome. Panel member name: MST1R; type: functional
# [16] = target: Death-associated protein kinase 3 (Homo sapiens, UniProt O43293); type: functional;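 note: measured as one member of a kinome-wide profiling panel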
# [17] = target: Glycogen synthase kinase-3 beta (Homo sapiens, UniProt P49841); type: functional;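 note: value comes from a broad kinome profiling panel, with GSK3B as the panel member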
# [18] = target: Leucine-rich repeat serine/threonine-protein kinase 2 (Homo sapiens, UniProt Q5S007); type: functional;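 note: value from a broad kinome-wide panel profiling study in which LRRK2 was one of the kinases tested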
# [19] = target: Dual specificity protein kinase CLK2 (Homo sapiens, UniProt P49760); type: functional
# [20] = target: Dual specificity protein kinase CLK4 (Homo sapiens, UniProt Q9HAZ1); type: functional
# Chain of Dual specificity protein kinase CLK4 (Q9HAZ1 whole entry): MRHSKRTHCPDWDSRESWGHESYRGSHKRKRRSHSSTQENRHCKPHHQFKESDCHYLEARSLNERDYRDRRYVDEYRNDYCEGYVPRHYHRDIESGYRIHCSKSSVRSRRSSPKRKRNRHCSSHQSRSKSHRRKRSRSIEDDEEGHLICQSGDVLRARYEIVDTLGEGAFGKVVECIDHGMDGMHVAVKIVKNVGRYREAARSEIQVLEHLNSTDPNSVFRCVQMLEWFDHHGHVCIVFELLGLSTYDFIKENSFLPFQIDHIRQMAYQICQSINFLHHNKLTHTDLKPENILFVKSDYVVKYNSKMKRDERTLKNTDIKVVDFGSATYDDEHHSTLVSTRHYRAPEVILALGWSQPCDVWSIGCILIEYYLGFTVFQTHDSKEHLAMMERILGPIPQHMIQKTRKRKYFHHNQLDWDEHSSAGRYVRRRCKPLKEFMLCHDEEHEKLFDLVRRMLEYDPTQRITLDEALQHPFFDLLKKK
# [21] = target: Tyrosine-protein kinase ABL1 (Homo sapiens, UniProt P00519); type: functional
# [22] = target: Vascular endothelial growth factor receptor 2 (Homo sapiens, UniProt P35968); type: functional
# [23] = target: Ribosomal protein S6 kinase alpha-3 (Homo sapiens, UniProt P51812); type: functional;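 note: measured within a kinome-wide profiling panel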
# [24] = target: Tyrosine-protein kinase JAK3 (Homo sapiens, UniProt P52333); type: functional
# Aurora kinase A = Aurora kinase A (Homo sapiens, UniProt O14965); type: functional;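 note: value from the Navigating the Kinome kinase panel profiling, panel entry STK6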
# [25] = target: Dual specificity tyrosine-phosphorylation-regulated kinase 1B (Homo sapiens, UniProt Q9Y463); assay: Navigating the Kinome. Panel member name: DYRK1B; type: functional
# [26] = target: Tyrosine-protein kinase receptor TYRO3 (Homo sapiens, UniProt Q06418); type: functional;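 note: TYRO3 value obtained as one member of a kinome-wide profiling panel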
# [27] = target: Mitogen-activated protein kinase 9 (Homo sapiens, UniProt P45984); type: functional;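 note: value from a kinome panel profiling assay, MAPK9 panel entry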
# Chain of Mitogen-activated protein kinase 9 (P45984 whole entry): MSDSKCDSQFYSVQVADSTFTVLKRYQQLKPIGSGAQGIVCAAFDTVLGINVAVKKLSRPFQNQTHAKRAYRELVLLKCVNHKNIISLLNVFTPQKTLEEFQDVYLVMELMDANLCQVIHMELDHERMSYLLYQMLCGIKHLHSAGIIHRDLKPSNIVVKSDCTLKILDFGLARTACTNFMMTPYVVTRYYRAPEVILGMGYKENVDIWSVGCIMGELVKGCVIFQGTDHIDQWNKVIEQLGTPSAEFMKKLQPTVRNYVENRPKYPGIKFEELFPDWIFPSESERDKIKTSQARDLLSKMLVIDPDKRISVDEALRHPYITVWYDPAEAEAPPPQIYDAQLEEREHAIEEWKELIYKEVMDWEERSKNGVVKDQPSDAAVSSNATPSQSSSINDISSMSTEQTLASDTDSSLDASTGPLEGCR
# [28] = target: Mitogen-activated protein kinase kinase kinase kinase 4 (Homo sapiens, UniProt O95819); type: functional
# [29] = target: Dual specificity mitogen-activated protein kinase kinase 1 (Homo sapiens, UniProt Q02750); assay: Navigating the Kinome. Panel member name: MAP2K1; type: functional
# [30] = target: Protein kinase C theta type (Homo sapiens, UniProt Q04759); assay: Navigating the Kinome. Panel member name: PRKCQ; type: functional
# [31] = target: Dual specificity tyrosine-phosphorylation-regulated kinase 1A (Homo sapiens, UniProt Q13627); type: functional;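 note: measured against DYRK1A as one member of a broad kinome profiling panel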
# [32] = target: Glycogen synthase kinase-3 alpha (Homo sapiens, UniProt P49840); type: functional;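 note: GSK3A result taken from a broad kinome-wide kinase panel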
# Activated CDC42 kinase 1 = Activated CDC42 kinase 1 (Homo sapiens, UniProt Q07912); assay: Navigating the Kinome. Panel member name: ACK1; type: functional
# [33] = target: Cyclin-dependent kinase 5 (Homo sapiens, UniProt Q00535); type: functional;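 note: CDK5 measured as one member of a kinase profiling panel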
# Chain of Cyclin-dependent kinase 5 (Q00535 whole entry): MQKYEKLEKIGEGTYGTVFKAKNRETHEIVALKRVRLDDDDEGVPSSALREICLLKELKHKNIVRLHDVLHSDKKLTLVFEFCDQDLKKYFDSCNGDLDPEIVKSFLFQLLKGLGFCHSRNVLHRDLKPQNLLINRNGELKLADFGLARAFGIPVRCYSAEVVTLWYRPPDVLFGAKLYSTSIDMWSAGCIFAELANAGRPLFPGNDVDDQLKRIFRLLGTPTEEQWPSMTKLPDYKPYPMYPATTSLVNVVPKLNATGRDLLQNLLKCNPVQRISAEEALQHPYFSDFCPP
# [34] = target: ALK tyrosine kinase receptor (Homo sapiens, UniProt Q9UM73); type: functional;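 note: ALK tested as one member of a kinase panel screen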
# [35] = target: Serine/threonine-protein kinase D3 (Homo sapiens, UniProt O94806); type: functional;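 note: determined within a kinase panel screen, with PRKCN as the panel member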
# [36] = target: Mitogen-activated protein kinase kinase kinase kinase 2 (Homo sapiens, UniProt Q12851); type: functional;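 note: measured as one member of a kinome-wide kinase panel, with MAP4K2 as the panel entry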
# [37] = target: cAMP-dependent protein kinase catalytic subunit alpha (Homo sapiens, UniProt P17612); type: functional
# [38] = target: Leukocyte tyrosine kinase receptor (Homo sapiens, UniProt P29376); assay: Navigating the Kinome. Panel member name: LTK; type: functional
# Chain of Leukocyte tyrosine kinase receptor (P29376 whole entry): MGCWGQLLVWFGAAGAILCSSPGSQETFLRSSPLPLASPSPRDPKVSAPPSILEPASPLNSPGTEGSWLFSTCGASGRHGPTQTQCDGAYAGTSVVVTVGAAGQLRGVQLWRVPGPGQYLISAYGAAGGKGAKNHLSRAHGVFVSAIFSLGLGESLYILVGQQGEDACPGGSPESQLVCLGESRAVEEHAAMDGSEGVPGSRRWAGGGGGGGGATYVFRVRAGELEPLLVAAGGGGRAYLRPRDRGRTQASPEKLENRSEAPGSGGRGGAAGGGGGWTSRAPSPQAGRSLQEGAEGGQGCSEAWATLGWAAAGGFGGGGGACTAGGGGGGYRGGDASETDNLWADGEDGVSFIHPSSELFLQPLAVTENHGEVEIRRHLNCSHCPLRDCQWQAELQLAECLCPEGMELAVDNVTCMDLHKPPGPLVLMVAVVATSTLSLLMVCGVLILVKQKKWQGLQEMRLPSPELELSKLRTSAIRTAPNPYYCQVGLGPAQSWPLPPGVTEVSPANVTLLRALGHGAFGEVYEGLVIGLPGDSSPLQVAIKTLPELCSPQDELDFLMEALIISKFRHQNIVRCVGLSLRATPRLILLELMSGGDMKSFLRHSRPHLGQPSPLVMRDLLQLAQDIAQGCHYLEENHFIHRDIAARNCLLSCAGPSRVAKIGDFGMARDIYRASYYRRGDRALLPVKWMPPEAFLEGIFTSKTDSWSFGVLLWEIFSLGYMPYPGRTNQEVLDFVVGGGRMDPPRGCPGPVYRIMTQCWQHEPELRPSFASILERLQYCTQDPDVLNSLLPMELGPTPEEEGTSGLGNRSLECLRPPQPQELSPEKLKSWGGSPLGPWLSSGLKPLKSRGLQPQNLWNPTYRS
# [39] = target: Tyrosine-protein kinase JAK2 (Homo sapiens, UniProt O60674); type: functional;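 note: JAK2 tested as one member of a kinase panel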
# Chain of Tyrosine-protein kinase JAK2 (O60674 whole entry): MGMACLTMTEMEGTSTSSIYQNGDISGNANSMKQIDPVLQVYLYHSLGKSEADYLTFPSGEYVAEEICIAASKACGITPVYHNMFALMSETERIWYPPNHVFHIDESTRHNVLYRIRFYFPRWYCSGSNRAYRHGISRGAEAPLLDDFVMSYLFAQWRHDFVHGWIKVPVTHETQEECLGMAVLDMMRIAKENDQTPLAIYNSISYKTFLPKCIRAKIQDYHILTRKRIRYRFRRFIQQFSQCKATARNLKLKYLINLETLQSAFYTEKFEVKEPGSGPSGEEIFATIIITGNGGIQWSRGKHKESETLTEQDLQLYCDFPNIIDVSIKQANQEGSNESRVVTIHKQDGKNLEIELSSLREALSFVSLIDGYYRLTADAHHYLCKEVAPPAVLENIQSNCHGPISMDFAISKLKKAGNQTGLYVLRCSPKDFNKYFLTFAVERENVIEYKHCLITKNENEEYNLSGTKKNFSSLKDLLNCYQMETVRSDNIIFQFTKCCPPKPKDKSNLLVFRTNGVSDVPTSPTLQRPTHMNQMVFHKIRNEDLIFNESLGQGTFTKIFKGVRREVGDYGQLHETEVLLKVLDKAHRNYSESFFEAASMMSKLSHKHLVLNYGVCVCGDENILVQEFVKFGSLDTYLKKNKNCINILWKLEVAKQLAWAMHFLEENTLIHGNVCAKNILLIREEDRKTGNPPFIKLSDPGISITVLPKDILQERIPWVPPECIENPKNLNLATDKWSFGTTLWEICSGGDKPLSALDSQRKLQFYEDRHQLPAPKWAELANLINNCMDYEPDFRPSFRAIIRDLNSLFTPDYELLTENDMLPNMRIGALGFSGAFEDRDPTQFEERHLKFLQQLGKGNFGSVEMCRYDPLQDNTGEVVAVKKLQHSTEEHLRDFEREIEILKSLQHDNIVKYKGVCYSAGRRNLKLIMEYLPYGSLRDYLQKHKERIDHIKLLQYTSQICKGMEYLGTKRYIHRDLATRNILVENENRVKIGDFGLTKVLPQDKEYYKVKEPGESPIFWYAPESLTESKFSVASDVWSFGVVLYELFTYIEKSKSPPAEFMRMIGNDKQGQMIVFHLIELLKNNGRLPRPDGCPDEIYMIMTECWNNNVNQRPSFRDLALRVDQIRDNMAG
# [40] = target: Platelet-derived growth factor receptor beta (Homo sapiens, UniProt P09619); type: functional;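 note: value comes from a kinome panel, with PDGFRB tested as one panel member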
# Chain of Platelet-derived growth factor receptor beta (P09619 whole entry): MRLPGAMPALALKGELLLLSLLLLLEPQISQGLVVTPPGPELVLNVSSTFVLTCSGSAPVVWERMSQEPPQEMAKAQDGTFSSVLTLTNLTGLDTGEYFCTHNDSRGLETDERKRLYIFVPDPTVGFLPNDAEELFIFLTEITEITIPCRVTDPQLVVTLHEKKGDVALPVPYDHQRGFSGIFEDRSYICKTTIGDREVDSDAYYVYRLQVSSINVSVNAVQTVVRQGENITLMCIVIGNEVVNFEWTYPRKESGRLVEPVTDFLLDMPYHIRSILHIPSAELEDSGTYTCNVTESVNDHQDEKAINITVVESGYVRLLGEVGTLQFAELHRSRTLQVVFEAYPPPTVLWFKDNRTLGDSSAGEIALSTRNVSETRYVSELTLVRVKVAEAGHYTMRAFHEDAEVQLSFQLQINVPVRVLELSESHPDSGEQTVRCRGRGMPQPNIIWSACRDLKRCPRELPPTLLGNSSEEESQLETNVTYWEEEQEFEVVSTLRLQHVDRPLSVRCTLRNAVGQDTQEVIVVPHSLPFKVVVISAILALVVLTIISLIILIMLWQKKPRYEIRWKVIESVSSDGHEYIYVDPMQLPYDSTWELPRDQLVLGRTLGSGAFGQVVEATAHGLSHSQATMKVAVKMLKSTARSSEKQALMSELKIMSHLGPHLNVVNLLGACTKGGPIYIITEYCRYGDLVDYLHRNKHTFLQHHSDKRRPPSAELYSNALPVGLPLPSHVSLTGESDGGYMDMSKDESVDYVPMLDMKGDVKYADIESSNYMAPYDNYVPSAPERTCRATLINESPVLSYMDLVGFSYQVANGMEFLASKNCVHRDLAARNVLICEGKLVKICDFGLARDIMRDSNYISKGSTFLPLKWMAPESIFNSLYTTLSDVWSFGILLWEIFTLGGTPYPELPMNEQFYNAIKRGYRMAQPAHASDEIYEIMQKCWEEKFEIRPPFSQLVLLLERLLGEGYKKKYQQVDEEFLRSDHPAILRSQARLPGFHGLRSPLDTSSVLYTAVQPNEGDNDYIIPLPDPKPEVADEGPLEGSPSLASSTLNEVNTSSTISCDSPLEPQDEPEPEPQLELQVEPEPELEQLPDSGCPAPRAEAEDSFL
# [41] = target: Cyclin-dependent kinase 9 (Homo sapiens, UniProt P50750); type: functional;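 note: value from the CDK9 entry of a kinome-spanning kinase panel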
# [42] = target: Sphingosine 1-phosphate receptor 2 (Homo sapiens, UniProt O95136); assay: Late-stage fluorescence-based dose-response cell-based counterscreen assay to identify agonists of the Sphingosine 1-Phosphate Receptor 3 (S1P3): Sphingosine 1-Phosphate Receptor 2 (S1P2) agonist assay.; type: functional
# [43] = target: Sphingosine 1-phosphate receptor 4 (Homo sapiens, UniProt O95977); assay: Late-stage fluorescence-based dose-response cell-based counterscreen assay to identify agonists of the Sphingosine 1-Phosphate Receptor 3 (S1P3): Sphingosine 1-Phosphate Receptor 4 (S1P4) agonist assay.; type: functional
# [44] = target: T1, Trace amine-associated receptor 1 (Homo sapiens, UniProt Q96RJ0); assay: Counterscreen for agonists of the human trace amine associated receptor 1 (hTAAR1): Fluorescence-based cell-based high throughput dose response assay to identify hTAAR1 agonist that also desensitize TAAR1 receptor response.; type: functional
# T1 sequence (Q96RJ0 whole entry): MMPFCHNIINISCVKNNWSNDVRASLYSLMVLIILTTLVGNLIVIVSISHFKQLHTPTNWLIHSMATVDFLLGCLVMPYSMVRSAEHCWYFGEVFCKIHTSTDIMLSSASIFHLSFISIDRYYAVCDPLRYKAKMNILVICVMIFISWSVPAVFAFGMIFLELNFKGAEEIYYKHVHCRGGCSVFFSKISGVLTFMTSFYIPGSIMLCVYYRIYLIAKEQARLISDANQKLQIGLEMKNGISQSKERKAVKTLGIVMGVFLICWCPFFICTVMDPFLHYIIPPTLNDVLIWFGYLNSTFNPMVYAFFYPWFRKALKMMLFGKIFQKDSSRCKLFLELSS
# [45] = target: T2, High affinity choline transporter 1 (Homo sapiens, UniProt Q9GZV3); assay: human choline transporter potentiators, potency – cell-based, 10-point CRC, membrane potential dye, dose response (AID 602376); type: functional
# T2 sequence (Q9GZV3 whole entry): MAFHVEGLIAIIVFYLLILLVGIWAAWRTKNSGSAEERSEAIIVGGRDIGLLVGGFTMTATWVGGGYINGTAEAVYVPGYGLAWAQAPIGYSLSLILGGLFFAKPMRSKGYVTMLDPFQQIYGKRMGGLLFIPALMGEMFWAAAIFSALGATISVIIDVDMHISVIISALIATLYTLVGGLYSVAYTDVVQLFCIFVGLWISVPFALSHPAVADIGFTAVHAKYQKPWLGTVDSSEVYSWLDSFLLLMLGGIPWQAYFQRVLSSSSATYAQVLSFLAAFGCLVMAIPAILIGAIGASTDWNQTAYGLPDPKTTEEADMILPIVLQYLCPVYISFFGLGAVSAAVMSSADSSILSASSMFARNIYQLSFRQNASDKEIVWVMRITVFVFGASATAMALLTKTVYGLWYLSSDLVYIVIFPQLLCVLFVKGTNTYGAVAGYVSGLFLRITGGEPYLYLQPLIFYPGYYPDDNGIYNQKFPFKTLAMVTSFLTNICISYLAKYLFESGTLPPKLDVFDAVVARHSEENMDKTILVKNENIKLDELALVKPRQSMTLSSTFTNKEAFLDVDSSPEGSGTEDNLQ
# cells [46] = type: functional, cell-based
# cells [47] = type: functional, cell-based; remark: listed apart in the source
# [48] = target: T1, Trace amine-associated receptor 1; assay: Fluorescence-based cell-based high throughput dose response assay to identify agonists of the human trace amine associated receptor 1 (TAAR1).; type: functional
smiles,measurement,setting,value
Fc1cccc(CNc2ncnc3nc[nH]c23)c1,Ki,[1],10 µM (active)
same,Ki,[2],63.1 µM (active)
same,Ki,Focal adhesion kinase 1,79.4 µM (active)
same,Ki,[3],100 µM (active)
same,Ki,[4],31.6 µM (active)
same,Ki,Activin receptor type-1,39.8 µM (active)
same,Ki,[5],5.01 µM (active)
same,Ki,[6],63.1 µM (active)
same,Ki,Aurora kinase B,15.8 µM (active)
same,Ki,[7],12.6 µM (active)
same,Ki,[8],20 µM (active)
same,Ki,[9],79.4 µM (active)
same,Ki,[10],15.8 µM (active)
same,Ki,[11],39.8 µM (active)
same,Ki,[12],25.1 µM (active)
same,Ki,[13],15.8 µM (active)
same,Ki,[14],31.6 µM (active)
same,Ki,[15],31.6 µM (active)
same,Ki,[16],31.6 µM (active)
same,Ki,[17],50.1 µM (active)
same,Ki,[18],2 µM (active)
same,Ki,[19],25.1 µM (active)
same,Ki,[20],1.58 µM (active)
same,Ki,[21],50.1 µM (active)
same,Ki,[22],25.1 µM (active)
same,Ki,[23],39.8 µM (active)
same,Ki,[24],63.1 µM (active)
same,Ki,Aurora kinase A,39.8 µM (active)
same,Ki,[25],12.6 µM (active)
same,Ki,[26],63.1 µM (active)
same,Ki,[27],50.1 µM (active)
same,Ki,[28],79.4 µM (active)
same,Ki,[29],10 µM (active)
same,Ki,[30],50.1 µM (active)
same,Ki,[31],39.8 µM (active)
same,Ki,[32],50.1 µM (active)
same,Ki,Activated CDC42 kinase 1,25.1 µM (active)
same,Ki,[33],5.01 µM (active)
same,Ki,[34],63.1 µM (active)
same,Ki,[35],63.1 µM (active)
same,Ki,[36],79.4 µM (active)
same,Ki,[37],10 µM (active)
same,Ki,[38],15.8 µM (active)
same,Ki,[39],31.6 µM (active)
same,Ki,[40],12.6 µM (active)
same,Ki,[41],> 63.1 µM (inactive)
CCCc1cc(C(=O)N(C2CCCCC2)C2CCCC2)no1,EC50,[42],> 50 µM (inactive)
same,EC50,[43],> 50 µM (inactive)
CC(C)CC(C(=O)N1CCc2ccccc2C1)N1C(=O)c2ccccc2C1=O (stereo not drawn),IC50,[44],5.55 µM (active)
same,EC50,[45],22.4 µM (active)
same,IC50,cells [46],> 29.9 µM (inactive)
same,EC50,cells [47],> 29.9 µM (inactive)
same,EC50,[48],2.96 µM (active)
